Legend:
Assay type in all cases: in vivo
BALB/c (H-2d) mice [1] = test system: BALB/c (H-2d) mice
BALB/c (H-2d) mice [2] = test: Kinetics of β-gal-specific IgG responses in sera of mice immunized i.n. or i.p. (Example 4); conditions: pure β-galactosidase 50 μg/dose i.n.; after a second boost
Protocol: Groups of animals (n=5) were immunized either i.n. (A) or i.p. (B) with 50 μg of β-gal ( ), β-gal plus 10 μg of CTB ( ), β-gal plus 0.5 μg of MALP-2 ( ) or pure buffer solution ( ). The days of the immunizations (day 0, 14 and 21) are marked by arrows. The results are shown as the reciprocal log2 of the geometric endpoint titer, and the SEM […] is indicated by means of vertical lines.
Six- to eight-week old female BALB/c (H-2d) mice were purchased from Harlan Winkelmann GmbH (Borchen, Germany) and treated in accordance with local and EU directives. Groups each of 5 mice were immunized on day 1, 14 and 21 either with 40 μg of pure β-galactosidase (Boehringer, Mannheim, Germany) with admixture of 0.5 μg of synthetic MALP-2 or 10 μg of cholera toxin B subunit (CTB; ICN Biomedicals Inc., Ohio) as standard adjuvant. For intranasal administration (i.n.), 10 μl were administered into each nostril, while for the i.p. injection β-galactosidase was resuspended with or without MALP-2 in 400, 100 or 100 μl of PBS. Serum samples were taken at various times (day 0, 13, 20 and 30) and stored at −20° C. until the β-galactosidase-specific antibodies were determined. Nunc-Immuno MaxiSorp assay plates with 96 wells (Nunc, Roskilde, Denmark) were coated with 100 μl of β-gal (Boehringer, Mannheim, Germany) with 5 μg/ml in 0.05 M […] (pH 8.2) per well. Serial two-fold dilutions of the sera or lavages in PBS with 1% BSA and 0.05% Tween-20 were added (100 μl/well) and the plates were incubated at 37° C. for 24 hours. After rinsing, biotinylated γ chain-specific goat anti-mouse IgG (Sigma Chemie, Deisenhofen, Germany) was added, and the plates were incubated at 37° C. for a further hour. After rinsing four times, 100 μl of peroxidase-conjugated streptavidin (Pharmingen) were added to the […], and the plates were incubated at 37° C. for 30 minutes. After rinsing four times, the reactions were developed by means of ABTS in 0.1 M citrate-phosphate buffer (pH 4.35) which contained 0.01% H2O2.

BALB/c (H-2d) mice [3] = test: β-Galactosidase-specific IgA in lung and vaginal lavages of mice immunized i.n. (Example 5); conditions: i.n. immunization; day 31
Protocol: The results are shown as percentage of β-galactosidase-specific IgA in relation to the total IgA present. The SEM is indicated by vertical lines.
The mice were sacrificed on day 31, and the final samples were taken. Vaginal and lung lavages were obtained by rinsing the organs with 1 ml of PBS supplemented by 50 mM EDTA, 0.1% BSA and 10 mM PMSF. The lavages were then centrifuged in order to remove tissue detritus (10 min at 3000×g) and the remaining liquid was stored at −20° C. In order to determine the total IgA concentration in the rinsings from lung and vagina, serial dilutions of the corresponding samples were incubated in microtiter plates, these plates having previously been coated with goat anti-mouse IgA (Sigma Chemie) as capture antibody (100 μl/well). Serial dilutions of purified mouse IgA (Sigma Chemie) were used to produce a standard plot.

BALB/c (H-2d) mice [4] = test: β-Galactosidase-specific T-cell proliferation of spleen and regional lymph node cells of immunized mice (Example 7); conditions: day 31
Protocol: The cells were restimulated in vitro with various concentrations of soluble β-galactosidase for four days. The results are shown as average cpm subtracted from the background values for unstimulated cells from groups of three. The SEM is depicted by vertical lines.
Lymph nodes located below the lower jaw and the spleens were removed and put together for the analysis of the cellular immune responses. The cells were grown in RPMI 1640 supplemented by 10% fetal calf serum, 10 U/ml penicillin, 50 μg/ml streptomycin, 5×10^−5 M 2-mercaptoethanol and 1 mM L-glutamine (GIBCO BRL, Karlsruhe, Germany) and stored at 37° C. in a moist atmosphere with 5% CO2. The suspensions of lymph node and spleen cells were adjusted to 5×10^6 cells/ml in complete medium and put in a flat-bottomed 96-well microtiter plate (Nunc) with 100 μl/well, and the plates were incubated in the presence of various concentrations of soluble β-galactosidase for 4 days. Each concentration was tested in groups of three. During the last 18 hours of the incubation, 1 ρCi of [^3H]thymidine (Amersham International, Freiburg, Germany) was added to each well. The cells were then harvested on filter paper (Filtermat A; Wallac, Freiburg, Germany) using a cell harvester (Inotech, Wohlen, Switzerland), and the amount of incorporated [^3H]thymidine in the DNA of the proliferated cells was determined with the aid of a […] (Wallac 1450, Micro-Trilux). The results have been shown as the arithmetic mean of the uptake of [^3H]thymidine in cpm.

BALB/c (H-2d) mice [5] = test: β-Galactosidase-specific IgG isotypes in the serum of immunized mice (ELISA, Example 8); conditions: average ± SEM, 5 mice per group
[6] = mice immunized i.p. with pure β-galactosidase

Substance	IL-10 content in supernatants of spleen cells stimulated in vitro (BALB/c (H-2d) mice [1]; mice immunized i.n., β-gal restimulation)	β-galactosidase-specific antibody endpoint titer in serum (BALB/c (H-2d) mice [2])	β-galactosidase-specific IgA in lung rinsings (BALB/c (H-2d) mice [3])	proliferation of lymph node and spleen cells after in vitro restimulation with β-galactosidase (BALB/c (H-2d) mice [4]; i.n. immunization)	proliferation of spleen cells after in vitro restimulation with β-galactosidase (BALB/c (H-2d) mice [4]; i.p. immunization)	β-Galactosidase-specific IgG1 in serum (BALB/c (H-2d) mice [5]; i.n.)	β-Galactosidase-specific IgG2a in serum (BALB/c (H-2d) mice [5]; i.n.)	β-Galactosidase-specific IgG2b in serum (BALB/c (H-2d) mice [5]; i.n.)	β-Galactosidase-specific IgG3 in serum (BALB/c (H-2d) mice [5]; i.n.)	β-Galactosidase-specific IgG1 in serum (BALB/c (H-2d) mice [5]; i.p.)	β-Galactosidase-specific IgG2a in serum (BALB/c (H-2d) mice [5]; i.p.)	β-Galactosidase-specific IgG2b in serum (BALB/c (H-2d) mice [5]; i.p.)	β-Galactosidase-specific IgG3 in serum (BALB/c (H-2d) mice [5]; i.p.)	Th1 cytokines IL-2 and IFN-γ secreted by restimulated cells (BALB/c (H-2d) mice [1]; [6])	secretion of IL-10 and IL-4 by restimulated cells (BALB/c (H-2d) mice [1]; [6])
CTB [reference compound]	0.6 ng/mL														
β-gal: model antigen β-galactosidase administered pure, without adjuvant		about 1000	no production of β-galactosidase-specific IgA in detectable quantity	no detectable cell proliferation	significant proliferation response	22.6 ± 21.3 µg/mL	0.7 ± 0.5 µg/mL	0.3 ± 0.1 µg/mL	0.6 ± 0.0 µg/mL	191.5 ± 132.1 µg/mL	0.1 ± 0.0 µg/mL	0.5 ± 0.1 µg/mL	0.6 ± 0.0 µg/mL	below the limit of detection	stimulated

Source: patent US10905761B2, “Use of a lipopeptide or lipoprotein as an adjuvant in therapeutic or prophylactic vaccinations” (HELMHOLTZ-ZENTRUM FUER INFEKTIONSFORSCHUNG GMBH, priority 2002, dated 2021)
